Assay results taken from paper PMC3230400, “Peroxisome Proliferator-Activated Receptor γ Is a Target for Halogenated Analogs of Bisphenol A” (Environmental Health Perspectives, 2011).
Entries after “also recorded” stand apart in the source; their conditions may differ.

Legend:
Format in all cases: cell-based
ERα = target: T1, ERα (Homo sapiens, UniProt P03372); experiment: HGELN-ERα stable reporter cell luciferase assay; details: for ranking order of estrogenic potency, ERα: HELN-ERα cell line; for agonistic activity toward ERα (luciferase): HGELN-ERα cells, relative to 10 nM E2; for ERα versus ERβ selectivity: HGELN-ERα vs HGELN-ERβ cells
T1 construct: expressed in transfected cells; host or cells: HGELN (HeLa-derived) cells, stably transfected
T1 sequence (P03372 1-595): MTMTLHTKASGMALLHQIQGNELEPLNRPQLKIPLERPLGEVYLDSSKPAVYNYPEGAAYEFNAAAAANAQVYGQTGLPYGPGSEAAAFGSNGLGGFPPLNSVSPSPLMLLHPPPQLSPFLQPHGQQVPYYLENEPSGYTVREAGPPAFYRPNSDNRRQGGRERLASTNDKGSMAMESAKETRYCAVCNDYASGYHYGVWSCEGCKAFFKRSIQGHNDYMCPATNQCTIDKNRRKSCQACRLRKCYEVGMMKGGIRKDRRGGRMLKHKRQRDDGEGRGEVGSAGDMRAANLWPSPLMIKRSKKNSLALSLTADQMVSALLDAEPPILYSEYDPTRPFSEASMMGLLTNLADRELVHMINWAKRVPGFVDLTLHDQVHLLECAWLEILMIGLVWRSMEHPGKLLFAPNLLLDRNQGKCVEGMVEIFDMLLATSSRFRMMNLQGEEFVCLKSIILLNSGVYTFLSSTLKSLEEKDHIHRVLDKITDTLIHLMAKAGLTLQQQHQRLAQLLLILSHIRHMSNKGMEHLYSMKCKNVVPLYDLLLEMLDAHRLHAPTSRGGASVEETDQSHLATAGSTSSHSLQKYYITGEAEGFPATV
Method: (§1) Reporter cell lines and stable gene expression assay. […] Briefly, reporter cells were seeded at a density of 20,000 cells/well in 96-well white opaque tissue culture plates and maintained in phenol-red–free Dulbecco’s modiﬁed Eagle’s medium (DMEM) supplemented with 5% dextran-coated, charcoal-treated fetal calf serum. Twenty-four hours later, culture medium was replaced with DMEM containing tested compounds. We performed assays in the absence of serum to avoid ligand capture by serum proteins. Sixteen hours after exposure, we replaced media with media containing 0.3 mM luciferin. Luminescence was measured in intact living cells for 2 sec in a Microbeta Wallac luminometer (PerkinElmer).

ERβ = target: T2, ERβ (Homo sapiens, UniProt Q92731); experiment: HGELN-ERβ stable reporter cell luciferase assay; details: for ranking order of estrogenic potency, ERβ: HELN-ERβ cell line; for agonistic activity toward ERβ (luciferase): HGELN-ERβ cells, relative to 10 nM E2
T2 construct: expressed in transfected cells; host or cells: HGELN (HeLa-derived) cells, stably transfected
T2 sequence (Q92731 whole entry): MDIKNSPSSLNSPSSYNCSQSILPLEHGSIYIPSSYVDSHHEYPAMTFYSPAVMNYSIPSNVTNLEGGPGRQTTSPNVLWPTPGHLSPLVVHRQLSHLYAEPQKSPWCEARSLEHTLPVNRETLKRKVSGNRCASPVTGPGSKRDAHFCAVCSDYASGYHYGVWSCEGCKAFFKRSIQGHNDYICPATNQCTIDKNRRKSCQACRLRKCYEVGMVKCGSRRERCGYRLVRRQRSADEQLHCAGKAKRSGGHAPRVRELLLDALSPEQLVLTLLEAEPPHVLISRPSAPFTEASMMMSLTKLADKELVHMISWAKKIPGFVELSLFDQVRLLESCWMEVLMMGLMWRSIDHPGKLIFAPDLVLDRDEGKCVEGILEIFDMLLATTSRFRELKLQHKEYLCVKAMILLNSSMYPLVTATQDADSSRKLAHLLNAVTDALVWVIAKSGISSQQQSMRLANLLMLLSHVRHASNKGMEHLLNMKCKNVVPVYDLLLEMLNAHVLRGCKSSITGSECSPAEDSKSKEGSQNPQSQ
Method: as §1

PPARγ [1] = target: T3, PPARγ (Homo sapiens, UniProt P37231); experiment: HGELN-PPARγ stable reporter cell luciferase assay; details: HGELN-PPARγ cells; for activation of PPARγ (luciferase): relative to 100 nM rosiglitazone
T3 sequence (P37231 238-505 limits assumed): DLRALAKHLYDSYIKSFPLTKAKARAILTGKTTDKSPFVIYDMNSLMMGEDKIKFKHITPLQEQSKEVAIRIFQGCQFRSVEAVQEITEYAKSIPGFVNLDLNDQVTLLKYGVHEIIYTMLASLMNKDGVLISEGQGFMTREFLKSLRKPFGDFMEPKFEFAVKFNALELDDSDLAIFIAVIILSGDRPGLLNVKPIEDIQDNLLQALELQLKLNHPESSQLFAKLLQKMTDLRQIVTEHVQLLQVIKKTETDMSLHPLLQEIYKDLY
Method: as §1

3T3L1 preadipocytes = experiment: 3T3L1 preadipocyte differentiation (Oil Red O staining); details: for induction of adipogenesis (Oil Red O staining): 8-day treatment with 10 μg/mL insulin and ligand, TCBPA and TBBPA at 10 μM
Method: NIH3T3-L1 differentiation. Two-day postconfluent 3T3L1 preadipocytes (a gift from L. Fajas; Institut de Génétique Moléculaire, Montpellier, France) were induced to differentiate by 2-day treatment with a differentiation mixture (10 μg/mL insulin, 1 μM dexamethasone, 0.5 mM isobutylmethylxanthine) followed by 8-day treatment with 10 μg/mL insulin and PPARγ ligands. The medium was replaced every 48 hr. After differentiation, cells were stained with Oil Red O for morphological analyses, or RNA was extracted from the cells using the RNeasy RNA isolation kit (Qiagen, Courtaboeuf, France). For RNA extractions, four independent cultures were performed per condition. Reverse transcription was performed with random hexamers on 1 μg total RNA using SuperScript II reverse transcriptase (Invitrogen), and the reaction was diluted 100 times for amplification. Real-time polymerase chain reaction (PCR) quantification was then performed using SYBR Green technology (LightCycler; Roche Diagnostics, Meylan, France). Results were normalized to two housekeeping genes (18S and 36B4) and quantified using qBase (Roche Diagnostics).
Two-day postconfluent 3T3L1 cells were treated for 8 days with 10 μg/mL insulin with vehicle (0.1% DMSO) or the ligands as indicated. Rosi, rosiglitazone. (A) Entire wells imaged after Oil Red O staining. (B) Quantitative real-time PCR of PPARγ and adipocyte-specific fatty acid–binding protein AP2 expression levels in postconfluent 3T3-L1 cells treated with the ligands for 24 hr. Data were normalized to 18S or 36B4 controls and plotted as average fold induction ± SE (n = 3 per treatment).

zebrafish PPARγ = experiment: Transient transactivation assay in HeLa cells, GAL4-zebrafish PPARγ LBD; details: 10 μM TBBPA, TCBPA, MEHP, 1 μM rosiglitazone
[2] = system: PPARγ target genes (AP2, PPARγ) in 3T3-L1 cells; experiment: Real-time PCR of PPARγ target genes in 3T3-L1 cells
Method: Two-day postconfluent 3T3L1 preadipocytes (a gift from L. Fajas; Institut de Génétique Moléculaire, Montpellier, France) were induced to differentiate by 2-day treatment with a differentiation mixture (10 μg/mL insulin, 1 μM dexamethasone, 0.5 mM isobutylmethylxanthine) followed by 8-day treatment with 10 μg/mL insulin and PPARγ ligands. […] After differentiation, cells were stained with Oil Red O for morphological analyses, or RNA was extracted from the cells using the RNeasy RNA isolation kit (Qiagen, Courtaboeuf, France). […] Reverse transcription was performed with random hexamers on 1 μg total RNA using SuperScript II reverse transcriptase (Invitrogen), and the reaction was diluted 100 times for amplification. Real-time polymerase chain reaction (PCR) quantification was then performed using SYBR Green technology (LightCycler; Roche Diagnostics, Meylan, France). Results were normalized to two housekeeping genes (18S and 36B4) and quantified using qBase (Roche Diagnostics).
Two-day postconfluent 3T3L1 cells were treated for 8 days with 10 μg/mL insulin with vehicle (0.1% DMSO) or the ligands as indicated. […] (B) Quantitative real-time PCR of PPARγ and adipocyte-specific fatty acid–binding protein AP2 expression levels in postconfluent 3T3-L1 cells treated with the ligands for 24 hr.

PPARγ [3] = target: T3, PPARγ; experiment: Transient transactivation assay in HeLa cells, GAL4-hPPARγ; details: 10 μM TBBPA, TCBPA, MEHP

Compound: 3-MonobromoBPA [monoBBPA]
- ranking order of estrogenic potency, ERα (ERα): monoBBPA > diBBPA > triBBPA
- agonistic activity toward ERα (luciferase) (ERα): highest transactivation efficiency
- ERα versus ERβ selectivity (ERα): slight ERα selectivity
- ranking order of estrogenic potency, ERβ (ERβ): monoBBPA > diBBPA > triBBPA
- ranking of ability to activate PPARγ (PPARγ [1]): TBBPA = triBBPA > diBBPA >>> monoBBPA

Compound: CN(CCOc1ccc(CC2SC(=O)NC2=O)cc1)c1ccccn1 (centres unmarked) [rosiglitazone, reference compound]
- induction of adipogenesis (Oil Red O staining) (3T3L1 preadipocytes): strongly induced adipogenesis
- activation of zebrafish PPARγ (transient transfection) (zebrafish PPARγ): completely inactive

Compound: 3,3´,5-tribromoBPA [triBBPA]
- ranking order of estrogenic potency, ERα (ERα): monoBBPA > diBBPA > triBBPA
- ranking order of estrogenic potency, ERβ (ERβ): monoBBPA > diBBPA > triBBPA
- ranking of ability to activate PPARγ (PPARγ [1]): TBBPA = triBBPA > diBBPA >>> monoBBPA
- activation of PPARγ (luciferase) (PPARγ [1]): highest potency

Compound: CC(C)(c1cc(Br)c(O)c(Br)c1)c1cc(Br)c(O)c(Br)c1 [TBBPA, 2,2-bis(3,5-dibromo-4-hydroxyphenyl)propane]
- ranking order of estrogenic potency, ERβ (ERβ): no estrogenic activity at all
- agonistic activity toward ERβ (luciferase) (ERβ): little effect
- induction of adipogenesis (Oil Red O staining) (3T3L1 preadipocytes): induced adipogenesis
- adipogenic action upon co-treatment with PPARγ antagonist CD5477 (3T3L1 preadipocytes; co-treatment with CD5477): inhibited the adipogenic action

Compound: 3,3´-dibromoBPA [diBBPA]
- ranking order of estrogenic potency, ERα (ERα): monoBBPA > diBBPA > triBBPA
- agonistic activity toward ERα (luciferase) (ERα): highest transactivation efficiency
- ERα versus ERβ selectivity (ERα): slight ERα selectivity
- ranking order of estrogenic potency, ERβ (ERβ): monoBBPA > diBBPA > triBBPA
- ranking of ability to activate PPARγ (PPARγ [1]): TBBPA = triBBPA > diBBPA >>> monoBBPA

Compound: CC(C)(c1cc(Cl)c(O)c(Cl)c1)c1cc(Cl)c(O)c(Cl)c1 [TCBPA, 2,2-bis(3,5-dichloro-4-hydroxyphenyl)propane]
- agonistic activity toward ERβ (luciferase) (ERβ): partially activated
- activation of PPARγ (luciferase) (PPARγ [1]): partially activating PPARγ
- induction of adipogenesis (Oil Red O staining) (3T3L1 preadipocytes): induced adipogenesis
- AP2 expression level compared with rosiglitazone [2]: much lesser extent
- activation of human PPARγ (transient transfection) (PPARγ [3]): activators
- activation of zebrafish PPARγ (transient transfection) (zebrafish PPARγ): activated

Compound: CC(C)(c1ccc(O)cc1)c1ccc(O)cc1 [BPA, bisphenol A]
- agonistic activity toward ERα (luciferase) (ERα): almost full agonistic activity; also recorded: highest transactivation efficiency
- agonistic activity toward ERβ (luciferase) (ERβ): almost full agonistic activity
- activation of PPARγ (luciferase) (PPARγ [1]): failed to activate; also recorded: absence of significant interaction
